Literature values, collected in article PMC4096870 (ChemMedChem, 2014).

| Structure (SMILES) | Ki (YopH) [µM] | kinact (YopH) [s⁻¹] | kinact/KI (YopH) [M⁻¹ s⁻¹] | IC50 (LYP) [µM] |
| --- | --- | --- | --- | --- |
| C=CS(=O)(=O)c1ccccc1 [PVS, phenyl vinyl sulfone] | 350 | 0.001 | 2.9 |  |
| O=C(Oc1cc(O)cc2c1C[C@@H](OC(=O)c1cc(O)c(O)c(O)c1)[C@@H](c1cc(O)c(O)c(O)c1)O2)c1cc(O)c(O)c(O)c1 [epigallocatechin-3,5-digallate] |  |  |  | 0.05 |
| O=P(O)(O)C(Br)c1ccccc1 (stereo not drawn) [BBP, α-bromobenzyl phosphonate] | 4100 | 0.002 | 0.49 |  |
| C=CS(=O)(=O)Oc1ccccc1 [PVSN, phenyl vinyl sulfonate] | 290 | 0.01 |  |  |
